# Experimental data published in US20200247761A1, “SULFONAMIDE OR AMIDE COMPOUNDS, COMPOSITIONS AND METHODS FOR THE PROPHYLAXIS AND/OR TREATMENT OF AUTOIMMUNE, INFLAMMATION OR INFECTION RELATED DISORDERS” (TAIWANJ PHARMACEUTICALS CO., LTD, priority 2017, published 2020).
# System: RAW264.7 cells
# Experiment: Cell viability (MTT) of RAW264.7 cells
# Type: cell-based
# Conditions: Table 2; 10 μM
# Method: (§1) RAW264.7 cells (1.6×10^5 cells/well) or HEK 293 cells (2.5-5.0×10^4 cells/well) were seeded in 96-well plate overnight and treated with different compounds for 16-24 hours. Cells' growth were determined by MTT-based colorimetric assays. Viability of the test cells treated with vehicle (0.5% DMSO) only was defined as 100% viable. Survival of cells after treatment with DETDs was calculated using the following formula: viable cell number (%)=OD570 (treated cell culture)/OD570 (vehicle control)×100.
# The cell viability assay was performed by the MTT method, in which cells were incubated with 45 μl of 5 mg/ml MTT for 1 hour at 37° C., and 150 μl of DMSO was added at the end of culture to dissolve the crystals. The signals of individual samples in 96-well plates were detected at O.D.570 nm with a Molecular Devices SpectraMax i3 Imaging Cytometer. Cell viability was expressed in percentage of viable LPS-stimulated cells.
row,SMILES,toxic activity toward RAW264.7 cells (in words)
1,C=C(C)C(=O)N(c1ccc(F)cc1Cl)S(=O)(=O)c1ccccc1 [Compound 20],negligible to no toxic activity
2,C=CC(=O)N(c1ccc(F)cc1Cl)S(=O)(=O)N1CCCCC1C(=O)OC (centres unmarked) [Compound 52],negligible to no toxic activity
3,C=CC(=O)N(c1ccc(F)cc1Cl)S(=O)(=O)N1CCC[C@H]1C(=O)OC [Compound 49],negligible to no toxic activity
4,C=CC(=O)N(c1ccc(F)cc1Cl)S(=O)(=O)Cc1ccccc1 [Compound 36],negligible to no toxic activity
5,C=CC(=O)N(c1ccc(F)cc1Cl)S(=O)(=O)c1ccccc1[N+](=O)[O-] [Compound 22],negligible to no toxic activity

# Same assay, conditions: Test Con. 10 μM; MTT; RAW264.7 cells; percentage of viable LPS-stimulated cells
row,SMILES,Cell Viability (%) mean
1,C=C(C)C(=O)N(c1ccc(F)cc1Cl)S(=O)(=O)c1ccccc1 [Compound 20],100.0%
2,C=CC(=O)c1ccccc1S(=O)(=O)N(C)c1ccccc1 [Compound 70],69.6%
3,C=CC(=O)N(c1ccc(F)cc1Cl)S(=O)(=O)N1CCCCC1C(=O)OC (centres unmarked) [Compound 52],88.1%
4,C=CC(=O)N1CCCc2cccc(S(=O)(=O)Nc3ccc(F)cc3Cl)c21 [Compound 12],25.5%
5,C=CC(=O)N(c1ccc(F)cc1Cl)S(=O)(=O)N1CCOC1=O [Compound 38],48.0%
6,C=CC(=O)N(c1ccc(F)cc1Cl)S(=O)(=O)N1CCC[C@H]1C(=O)OC [Compound 49],81.6%
7,C=CC(=O)N(c1ccc(F)cc1Cl)S(=O)(=O)Cc1ccccc1 [Compound 36],102.8%
8,C=CC(=O)N(c1ccc(F)cc1Cl)S(=O)(=O)c1ccccc1[N+](=O)[O-] [Compound 22],96.4%
9,C=CC(=O)N1CCCc2cccc(S(=O)(=O)Nc3ccc(F)cc3F)c21 [Compound 15],52.4%

# System: HEK293 cells
# Experiment: Cell viability (MTT) of the TLR4-expressing HEK293 cells
# Type: cell-based
# Conditions: Test Con. 10 μM, percentage of viable LPS-stimulated cells
# Method: as §1
# The cell viability assay was performed by the MTT method. Cells were incubated with 45 μl of 5 mg/ml MTT for 1 hour at 37° C., and 150 μl of DMSO was added at the end of culture to dissolve the crystals. The signals of individual samples in 96-well plates were detected at O.D.570 nm with a Molecular Devices SpectraMax i3 Imaging Cytometer. Cell viability was expressed in percentage of viable LPS-stimulated cells.
row,SMILES,Cell Viability (%) mean
1,C=C(C)C(=O)N(c1ccc(F)cc1Cl)S(=O)(=O)c1ccccc1 [Compound 20],90.4%
2,C=CC(=O)c1ccccc1S(=O)(=O)N(C)c1ccccc1 [Compound 70],79.7%
3,C=CC(=O)N(c1ccc(F)cc1Cl)S(=O)(=O)N1CCCCC1C(=O)OC (centres unmarked) [Compound 52],92.2%
4,C=CC(=O)N1CCCc2cccc(S(=O)(=O)Nc3ccc(F)cc3Cl)c21 [Compound 12],72%
5,C=CC(=O)N(c1ccc(F)cc1Cl)S(=O)(=O)N1CCOC1=O [Compound 38],61.6%
6,C=CC(=O)N(c1ccc(F)cc1Cl)S(=O)(=O)N1CCC[C@H]1C(=O)OC [Compound 49],108.5%
7,C=CC(=O)N(c1ccc(F)cc1Cl)S(=O)(=O)Cc1ccccc1 [Compound 36],107.0%
8,C=CC(=O)N(c1ccc(F)cc1Cl)S(=O)(=O)c1ccccc1[N+](=O)[O-] [Compound 22],109.9%
9,C=CC(=O)N1CCCc2cccc(S(=O)(=O)Nc3ccc(F)cc3F)c21 [Compound 15],84.1%

# System: mTNF-α secretion from LPS-stimulated RAW264.7 monocytes
# Experiment: LPS induced mTNF-α release from RAW264.7 cells (ELISA)
# Type: cell-based
# Conditions: Mus musculus, RAW264.7; Table 2; 10 μM; read-out: inhibition of LPS induced mTNF-α release from RAW264.7 cells
# Method: To confirm whether the inhibitory effect of the selected compounds of example 2.1 (i.e., Compounds 12, 15, 19, 20, 22, 24, 28, 30, 32, 34, 36, 38, 40, 42, 44, 45, 49, 50, 52 and 70) translates to anti-inflammation, they were further tested to see if any of them may suppress mTNF-α secretion from lipopolysaccharide (LPS)-stimulated RAW264.7 monocytes.
# To this purpose, RAW264.7 cells were seeded at 1.6×10^5 cells/well into 96-well culture plates. Test compounds (i.e., Compounds 12, 15, 19, 20, 22, 24, 28, 30, 32, 34, 36, 38, 40, 42, 44, 45, 49, 50, 52 and 70, respectively at 10 μM) were added into the culture plates in triplicate and co-cultured at 37° C. in 5% CO2 for 30 minutes. LPS (final conc. 10 ng/ml/well) was then added into the culture plates and the cells were incubated for another 4 hours. At the end of culture, the cultured media were harvested for mTNF-α quantification by ELISA with commercial assay kits (R&D Systems, Minneapolis, Minn.) following the manufacturer's protocol. Signals of the individual samples in 96-well plates were detected at O.D.450 nm/570 nm with a Molecular Devices SpectraMax i3 Imaging Cytometer. The mTNF-α activity was expressed in percentage of viable LPS-stimulated cells without test compound treatment.
row,SMILES,inhibition at 10 µM
1,C=C(C)C(=O)N(c1ccc(F)cc1Cl)S(=O)(=O)c1ccccc1 [Compound 20],~70%
2,C=CC(=O)c1ccccc1S(=O)(=O)N(C)c1ccccc1 [Compound 70],85 to 100%
3,C=CC(=O)N(c1ccc(F)cc1Cl)S(=O)(=O)N1CCCCC1C(=O)OC (centres unmarked) [Compound 52],85 to 100%
4,C=CC(=O)N1CCCc2cccc(S(=O)(=O)Nc3ccc(F)cc3Cl)c21 [Compound 12],85 to 100%
5,C=CC(=O)N(c1ccc(F)cc1Cl)S(=O)(=O)N1CCOC1=O [Compound 38],85 to 100%
6,C=CC(=O)N(c1ccc(F)cc1Cl)S(=O)(=O)N1CCC[C@H]1C(=O)OC [Compound 49],85 to 100%
7,C=CC(=O)N(c1ccc(F)cc1Cl)S(=O)(=O)Cc1ccccc1 [Compound 36],~13%
8,C=CC(=O)N(c1ccc(F)cc1Cl)S(=O)(=O)c1ccccc1[N+](=O)[O-] [Compound 22],~40%
9,C=CC(=O)N1CCCc2cccc(S(=O)(=O)Nc3ccc(F)cc3F)c21 [Compound 15],85 to 100%

# Same assay, conditions: Mus musculus; Test Con. 10 μM; LPS 10 ng/ml, 4 hours; RAW264.7 cells; read-out: mTNF-α inhibition (%) mean
row,SMILES,inhibition at 10 µM
1,C=C(C)C(=O)N(c1ccc(F)cc1Cl)S(=O)(=O)c1ccccc1 [Compound 20],70.9%
2,C=CC(=O)c1ccccc1S(=O)(=O)N(C)c1ccccc1 [Compound 70],100%
3,C=CC(=O)N(c1ccc(F)cc1Cl)S(=O)(=O)N1CCCCC1C(=O)OC (centres unmarked) [Compound 52],97.2%
4,C=CC(=O)N1CCCc2cccc(S(=O)(=O)Nc3ccc(F)cc3Cl)c21 [Compound 12],100%
5,C=CC(=O)N(c1ccc(F)cc1Cl)S(=O)(=O)N1CCOC1=O [Compound 38],97.1%
6,C=CC(=O)N(c1ccc(F)cc1Cl)S(=O)(=O)N1CCC[C@H]1C(=O)OC [Compound 49],98.8%
7,C=CC(=O)N(c1ccc(F)cc1Cl)S(=O)(=O)Cc1ccccc1 [Compound 36],13%
8,C=CC(=O)N(c1ccc(F)cc1Cl)S(=O)(=O)c1ccccc1[N+](=O)[O-] [Compound 22],45.7%
9,C=CC(=O)N1CCCc2cccc(S(=O)(=O)Nc3ccc(F)cc3F)c21 [Compound 15],94.7%

# Target: T1, Toll-like receptor 4 (TLR4) (Homo sapiens, UniProt O00206)
# T1 construct: expressed in transfected cells; host or cells: HEK293 cells engineered to express TLR4
# T1 sequence (O00206 24-839, species assumed): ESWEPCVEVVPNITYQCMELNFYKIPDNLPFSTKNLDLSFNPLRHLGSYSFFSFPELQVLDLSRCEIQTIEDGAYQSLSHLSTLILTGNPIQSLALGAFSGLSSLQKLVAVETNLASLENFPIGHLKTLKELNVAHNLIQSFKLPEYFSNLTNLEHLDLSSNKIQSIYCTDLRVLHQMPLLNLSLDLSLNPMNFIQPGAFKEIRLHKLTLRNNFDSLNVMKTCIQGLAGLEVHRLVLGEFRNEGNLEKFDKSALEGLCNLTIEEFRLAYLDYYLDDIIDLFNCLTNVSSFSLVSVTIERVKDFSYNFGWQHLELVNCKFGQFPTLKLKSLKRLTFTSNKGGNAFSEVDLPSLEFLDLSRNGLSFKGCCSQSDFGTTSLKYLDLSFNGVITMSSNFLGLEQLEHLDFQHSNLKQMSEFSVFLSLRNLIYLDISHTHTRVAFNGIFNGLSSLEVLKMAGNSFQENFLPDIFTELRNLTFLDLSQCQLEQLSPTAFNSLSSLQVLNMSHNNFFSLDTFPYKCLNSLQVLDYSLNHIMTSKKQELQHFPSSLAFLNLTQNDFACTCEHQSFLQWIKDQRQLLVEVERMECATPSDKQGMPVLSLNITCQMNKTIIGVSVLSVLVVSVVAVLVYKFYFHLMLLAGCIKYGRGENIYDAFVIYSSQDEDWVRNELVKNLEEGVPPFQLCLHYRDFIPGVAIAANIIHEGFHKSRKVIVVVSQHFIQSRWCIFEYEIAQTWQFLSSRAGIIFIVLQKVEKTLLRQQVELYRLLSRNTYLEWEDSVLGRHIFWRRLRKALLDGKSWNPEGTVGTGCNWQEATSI
# T1 sequence (Q9Y6Y9 17-160 partner limits assumed, species assumed): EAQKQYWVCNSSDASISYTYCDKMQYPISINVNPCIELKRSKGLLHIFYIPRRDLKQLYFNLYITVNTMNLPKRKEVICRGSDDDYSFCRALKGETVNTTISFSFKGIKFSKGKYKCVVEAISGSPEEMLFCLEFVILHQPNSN
# Experiment: TLR4 activity: NF-κB-inducible SEAP reporter in LPS-stimulated TLR4-expressing HEK293 cells
# Type: cell-based
# Conditions: Test Con. 10 μM; LPS 10 ng/ml; 16-24 hours; HEK293 cells expressing TLR4; read-out: TLR-4 inhibition (%) mean
# Method: Stimulation of the Toll-like receptor 4 (TLR4) was determined by assessing activation of the transcription factor NF-κB in HEK293 cells that were engineered to express TLR4. Assessment of TLR4 stimulation was based on the use of an NE-κB-inducible secreted alkaline phosphatase (SEAP) reporter system in which the SEAP reporter was under the control of a promoter inducible by NF-κB. Thus, the degree of activation of TLR4 can be indirectly quantified spectrophotometrically by measuring the amount of the SEAP reporter that is produced.
# The TLR4-expressing cells were plated in HEK-Blue Detection (Invivogen, San Diego, Calif.) medium in a 96-well plate (25,000-50,000 cells/well). The cells were stimulated with lipopolysaccharides (LPS) alone or in combination with the compound of Example 1. Cell culture without LPS and the compound of Example 1 was defined as baseline control. To test whether the compound of Example 1 could block that activation of the TLR4, the cells were treated with the designated compound (10, 20 or 100 μM) and LPS (final conc. 10 ng/ml/well). After an incubation period (16-24 hours) at 37° C. in a CO2 incubator, the signals of individual samples in 96-well plates were detected at O.D.650 nm with a Molecular Devices SpectraMax i3 Imaging Cytometer. The TLR4 activity was expressed in percentage of LPS alone-stimulated cells minus baseline control.
row,SMILES,inhibition at 10 µM
1,C=C(C)C(=O)N(c1ccc(F)cc1Cl)S(=O)(=O)c1ccccc1 [Compound 20],60.1%
2,C=CC(=O)c1ccccc1S(=O)(=O)N(C)c1ccccc1 [Compound 70],100%
3,C=CC(=O)N(c1ccc(F)cc1Cl)S(=O)(=O)N1CCCCC1C(=O)OC (centres unmarked) [Compound 52],100%
4,C=CC(=O)N1CCCc2cccc(S(=O)(=O)Nc3ccc(F)cc3Cl)c21 [Compound 12],98.9%
5,C=CC(=O)N(c1ccc(F)cc1Cl)S(=O)(=O)N1CCOC1=O [Compound 38],100%
6,C=CC(=O)N(c1ccc(F)cc1Cl)S(=O)(=O)N1CCC[C@H]1C(=O)OC [Compound 49],76.2%
7,C=CC(=O)N(c1ccc(F)cc1Cl)S(=O)(=O)Cc1ccccc1 [Compound 36],67.3%
8,C=CC(=O)N(c1ccc(F)cc1Cl)S(=O)(=O)c1ccccc1[N+](=O)[O-] [Compound 22],63%
9,C=CC(=O)N1CCCc2cccc(S(=O)(=O)Nc3ccc(F)cc3F)c21 [Compound 15],100%

# Same assay, conditions: summary of Table 1 (10, 20 or 100 μM)
row,SMILES,activity towards TLR-4 (in words)
1,C=C(C)C(=O)N(c1ccc(F)cc1Cl)S(=O)(=O)c1ccccc1 [Compound 20],moderate inhibitory activity
2,C=CC(=O)c1ccccc1S(=O)(=O)N(C)c1ccccc1 [Compound 70],strong antagonist
3,C=CC(=O)N(c1ccc(F)cc1Cl)S(=O)(=O)N1CCCCC1C(=O)OC (centres unmarked) [Compound 52],strong antagonist
4,C=CC(=O)N1CCCc2cccc(S(=O)(=O)Nc3ccc(F)cc3Cl)c21 [Compound 12],strong antagonist
5,C=CC(=O)N(c1ccc(F)cc1Cl)S(=O)(=O)N1CCOC1=O [Compound 38],strong antagonist
6,C=CC(=O)N(c1ccc(F)cc1Cl)S(=O)(=O)N1CCC[C@H]1C(=O)OC [Compound 49],moderate inhibitory activity
7,C=CC(=O)N(c1ccc(F)cc1Cl)S(=O)(=O)Cc1ccccc1 [Compound 36],moderate inhibitory activity
8,C=CC(=O)N(c1ccc(F)cc1Cl)S(=O)(=O)c1ccccc1[N+](=O)[O-] [Compound 22],moderate inhibitory activity
9,C=CC(=O)N1CCCc2cccc(S(=O)(=O)Nc3ccc(F)cc3F)c21 [Compound 15],strong antagonist
